Tests used:
Assay in all cases: relative viability (nuclei count vs DMSO), 5 days (fraction); higher = more cells survive
CUDC-101 + Palbociclib = compound: C#Cc1cccc(Nc2ncnc3cc(OC)c(OCCCCCCC(=O)NO)cc23)c1 [CUDC-101] + CC(=O)c1c(C)c2cnc(Nc3ccc(N4CCNCC4)cn3)nc2n(C2CCCC2)c1=O [Palbociclib] (partner 0.5 µM)
How it was run: (§1)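 Lung cancer cell lines were pin-tool dosed in 1536-well plates on the day after seeding, with either a lone drug or a fixed anchor-drug dose plus five library-drug doses (not always all listed) in √10 steps. Nuclei were counted on 4× images after 5 days. Relative viability is the ratio of treated-well to vehicle-well nuclei counts, with each value a median of duplicate plates.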

CUDC-101 + Olaparib = compound: C#Cc1cccc(Nc2ncnc3cc(OC)c(OCCCCCCC(=O)NO)cc23)c1 [CUDC-101] + O=C(c1cc(Cc2n[nH]c(=O)c3ccccc23)ccc1F)N1CCN(C(=O)C2CC2)CC1 [Olaparib] (partner 8 µM)
How it was run: as §1

[1] = compound: C1=CC=C2C(=C1)N=C(S2)C(C#N)C3=NC(=NC=C3)NCCC4=CN=CC=C4 + CCNC(=O)c1noc(-c2cc(C(C)C)c(O)cc2O)c1-c1ccc(CN2CCOCC2)cc1 [Luminespib] (partner 0.01 µM)
How it was run: as §1

CUDC-101 + Linsitinib = compound: C#Cc1cccc(Nc2ncnc3cc(OC)c(OCCCCCCC(=O)NO)cc23)c1 [CUDC-101] + C[C@]1(O)C[C@@H](c2nc(-c3ccc4ccc(-c5ccccc5)nc4c3)c3c(N)nccn32)C1 [Linsitinib] (partner 1 µM)
How it was run: as §1

Work on UMC-11 yielded a relative viability (CUDC-101 + Palbociclib; first compound 0.01 µM) of 0.346, a relative viability (CUDC-101 + Palbociclib; first compound 0.03162 µM) of 0.375 and a relative viability (CUDC-101 + Palbociclib; first compound 0.1 µM) of 0.323. For the same cell line, the relative viability (CUDC-101 + Palbociclib; first compound 0.3162 µM) was 0.277, the relative viability (CUDC-101 + Palbociclib; first compound 1 µM) was 0.228 and the relative viability (CUDC-101 + Olaparib; first compound 0.01 µM) was 0.29. The relative viability (CUDC-101 + Olaparib; first compound 0.03162 µM) was 0.707, the relative viability (CUDC-101 + Olaparib; first compound 0.1 µM) was 0.377 and the relative viability (CUDC-101 + Olaparib; first compound 0.3162 µM) was 0.237. For the same cell line, the relative viability (CUDC-101 + Olaparib; first compound 1 µM) was 0.119, the relative viability ([1]; first compound 0.005 µM) was 0.735 and the relative viability ([1]; first compound 0.01581 µM) was 1.04. The relative viability ([1]; first compound 0.05 µM) was 0.861, the relative viability ([1]; first compound 0.1581 µM) was 1.03 and the relative viability ([1]; first compound 0.5 µM) was 0.957. It also gave a relative viability (CUDC-101 + Linsitinib; first compound 0.01 µM) of 1.07, a relative viability (CUDC-101 + Linsitinib; first compound 0.03162 µM) of 0.97 and a relative viability (CUDC-101 + Linsitinib; first compound 0.1 µM) of 1.03. The relative viability (CUDC-101 + Linsitinib; first compound 0.3162 µM) was 0.864 and the relative viability (CUDC-101 + Linsitinib; first compound 1 µM) was 0.208.

From the supplement of paper PMC10307832
